Data on 63 molecules can be found in US7468445B2, “Antigiardial agents and use thereof” (University of Mississippi, priority 2002, dated 2008).

In brackets after ≈: the same amount, converted by molar mass. A value given as a limit tells only on which side of the number the result lay.

Tested on in one data set: not given
Assay: not given
Settings: not given
By melting point is commonly meant the temperature, or range, at which the solid turns liquid. As to `O=c1c(-c2ccccc2)coc2c(Cl)c(O)ccc12` [P(A2,B1), 8-Chloro-7-hydroxy-3-phenylchromen-4-one], the melting point fell in the range of 242 to 244 °C.
Same read-out and setting: the value for `O=c1c(-c2ccccc2)coc2c(Br)c(O)ccc12` [P(A3,B1), 8-Bromo-7-hydroxy-3-phenylchromen-4-one] was 256 to 258 °C; that for `O=c1c(-c2ccccc2)coc2cc(O)c(Cl)cc12` [P(A5,B1), 6-Chloro-7-hydroxy-3-phenylchromen-4-one] was 279 to 280 °C; that for `O=c1c(-c2ccccc2)coc2cc(O)c(Br)cc12` [P(A6,B1), 6-Bromo-7-hydroxy-3-phenylchromen-4-one] was 296 to 297 °C (dec.).

The next data set deals with Giardia lamblia.
Assay: not given
The conditions noted are these: biological evaluation of natural products; formononetin and pseudobaptigenin in vitro; cited from earlier work.
Regarding `COc1ccc(-c2coc3cc(O)ccc3c2=O)cc1` [formononetin], the “antigiardial activity” value was “potent antigiardial activity”.
With `O=c1c(O)c(-c2ccc(O)cc2)oc2cc(O)cc(O)c12` [kaempferol], the “antigiardial activity” value is “exhibit antigiardial activity”.
Turning to `O=c1c(-c2ccc3c(c2)OCO3)coc2cc(O)ccc12` [pseudobaptigenin], the “antigiardial activity” value was “potent antigiardial activity”.
For `O=c1c(O)c(-c2ccc(O)c(O)c2)oc2cc(O)cc(O)c12` [quercetin], the “antigiardial activity” value is “exhibit antigiardial activity”.
Consider geranins A [geranin A], for which the “antigiardial activity” value was “exhibit antigiardial activity”.

A further data set concerns Giardia intestinalis (ATCC #30888). In words: Antigiardial biological screening (XTT tetrazolium dye procedure). It is filed as cell-based. The note with it: Giardia duodenalis, ATCC30888; concentration that inhibits giardial growth by 50%, estimated graphically; samples at 10, 3.3 and 1.1 μg/mL, 24 h at 37° C., XTT; NA = inactive; read-out: IC50. How it is done:
Biological Screening. […] Subculturing was done every 48-72 h under a sterile biosafety hood. Tubes were chilled in an ice bath for 10 min. in order to detach the organisms, and 1 mL of cell suspension was added to 14 mL of fresh medium. To carry out the screening, a suspension of Giardia cells was prepared at a concentration of 100,000 cells/mL. 100 μL of the suspension was then added to each well of a Corning 96-well flat-bottomed tissue culture-treated plate. Blank wells received medium only. An additional 125 μL of medium was added to each well, and the plates were incubated at 37° C. for 24 h in an anaerobic chamber filled with nitrogen. […] The plates were further incubated at 37° C. for 24 h. The plates were then processed using a tetrazolium dye (XTT) procedure. Absorbance readings were taken at 450 nm with background at 630 nm subtracted.
By IC50 is commonly meant the concentration that inhibits the measured activity by half. In the case of `O=c1c(-c2ccccc2)coc2c(Cl)c(O)ccc12` [P(A2,B1), 8-Chloro-7-hydroxy-3-phenylchromen-4-one], the IC50 was 1.7 µg/mL (≈ 6.23 µM).
Still for that read-out and setting: with `O=c1c(-c2ccccc2)coc2c(Br)c(O)ccc12` [P(A3,B1), 8-Bromo-7-hydroxy-3-phenylchromen-4-one] the figure was 1.6 µg/mL (≈ 5.05 µM); with `O=c1c(-c2ccccc2)coc2cc(O)c(Br)cc12` [P(A6,B1), 6-Bromo-7-hydroxy-3-phenylchromen-4-one], 5 µg/mL (≈ 15.8 µM).
The same measure, in the same setting: with `Cc1ncc([N+](=O)[O-])n1CCO` [metronidazole, reference compound] the figure was 1.5 µg/mL (≈ 8.76 µM).

Staying with this data set, now noted: concentration that inhibits giardial growth by 50%, estimated graphically; samples at 10, 3.3 and 1.1 μg/mL, 24 h at 37° C., XTT; NA = inactive.
As for `O=c1c(-c2ccccc2)coc2c(F)c(O)ccc12` [P(A1,B1)], the IC50 was under 1.1 µg/mL.
Still for that read-out and setting: with `O=c1c(-c2ccc(Cl)cc2)coc2c(F)c(O)ccc12` [P(A1,B8)] the figure was over 10.0 µg/mL.
In the case of `O=c1c(-c2ccc(F)cc2)coc2c(F)c(O)ccc12` [P(A1,B9)], the concentration for half-maximal inhibition (IC50) was over 10.0 µg/mL.
On the same count and under the same terms, with `COc1ccc(-c2coc3c(F)c(O)ccc3c2=O)cc1` [P(A1,B11)] the figure was under 1.1 µg/mL; with `O=c1c(-c2ccc(Br)cc2)coc2c(F)c(O)ccc12` [P(A1,B17)], over 10.0 µg/mL; with `CCOc1ccc(-c2coc3c(F)c(O)ccc3c2=O)cc1` [P(A1,B18)], 8.8 µg/mL (≈ 29.3 µM).
The same measure, in the same setting: with `Cc1cccc(-c2coc3c(F)c(O)ccc3c2=O)c1` [P(A1,B19)] the figure was under 1.1 µg/mL.
The same measure, in the same setting: with `Cc1ccc(-c2coc3c(F)c(O)ccc3c2=O)cc1` [P(A1,B20)] the figure was under 1.1 µg/mL; with `O=c1c(-c2ccc(F)c(F)c2)coc2c(F)c(O)ccc12` [P(A1,B22)], under 1.1 µg/mL; with `O=c1c(-c2cccc(Cl)c2)coc2c(F)c(O)ccc12` [P(A1,B27)], under 1.1 µg/mL.
For the molecule `O=c1c(-c2ccc(Cl)cc2)coc2c(Cl)c(O)ccc12` [P(A2,B8)], the IC50 is 4.5 µg/mL (≈ 14.7 µM).
On to `O=c1c(-c2ccc(F)cc2)coc2c(Cl)c(O)ccc12` [P(A2,B9)], for which the IC50 is over 10.0 µg/mL.
Same read-out and setting: the value for `COc1ccc(-c2coc3c(Cl)c(O)ccc3c2=O)cc1` [P(A2,B11)] was over 10.0 µg/mL; that for `O=c1c(-c2ccc(Br)cc2)coc2c(Cl)c(O)ccc12` [P(A2,B17)] was 5.7 µg/mL (≈ 16.2 µM).
On the same count and under the same terms, with `CCOc1ccc(-c2coc3c(Cl)c(O)ccc3c2=O)cc1` [P(A2,B18)] the figure was over 10.0 µg/mL.
On to `Cc1cccc(-c2coc3c(Cl)c(O)ccc3c2=O)c1` [P(A2,B19)], for which the IC50 was over 10.0 µg/mL.
On the same count and under the same terms, with `Cc1ccc(-c2coc3c(Cl)c(O)ccc3c2=O)cc1` [P(A2,B20)] the figure was over 10.0 µg/mL; with `O=c1c(-c2ccc(F)c(F)c2)coc2c(Cl)c(O)ccc12` [P(A2,B22)], 3.7 µg/mL (≈ 12 µM).
Same read-out and setting: the value for `O=c1c(-c2cc(F)cc(F)c2)coc2c(Cl)c(O)ccc12` [P(A2,B23)] was under 1.1 µg/mL; that for `O=c1c(-c2cccc(Br)c2)coc2c(Cl)c(O)ccc12` [P(A2,B26)] was under 1.1 µg/mL.
As to `O=c1c(-c2cccc(Cl)c2)coc2c(Cl)c(O)ccc12` [P(A2,B27)], the IC50 was 1.7 µg/mL (≈ 5.54 µM).
As for `O=c1c(-c2cccc(F)c2)coc2c(Cl)c(O)ccc12` [P(A2,B28)], the IC50 is 5.2 µg/mL (≈ 17.9 µM).
On the same count and under the same terms, with `COc1cccc(-c2coc3c(Cl)c(O)ccc3c2=O)c1` [P(A2,B29)] the figure was 4.8 µg/mL (≈ 15.9 µM); with `O=c1c(-c2ccc(Cl)cc2)coc2c(Br)c(O)ccc12` [P(A3,B8)], 1.9 µg/mL (≈ 5.4 µM); with `O=c1c(-c2ccc(F)cc2)coc2c(Br)c(O)ccc12` [P(A3,B9)], 6.8 µg/mL (≈ 20.3 µM).
The same measure, in the same setting: the value for `CCOc1ccc(-c2coc3c(Br)c(O)ccc3c2=O)cc1` [P(A3,B10)] was 9.3 µg/mL (≈ 25.7 µM); that for `COc1ccc(-c2coc3c(Br)c(O)ccc3c2=O)cc1` [P(A3,B11)] was under 1.1 µg/mL; that for `O=c1c(-c2ccc(Br)cc2)coc2c(Br)c(O)ccc12` [P(A3,B17)] was over 10.0 µg/mL.
Same read-out and setting: with `Cc1cccc(-c2coc3c(Br)c(O)ccc3c2=O)c1` [P(A3,B19)] the figure was under 1.1 µg/mL; with `Cc1ccc(-c2coc3c(Br)c(O)ccc3c2=O)cc1` [P(A3,B20)], 3.9 µg/mL (≈ 11.8 µM); with `O=c1c(-c2cccc(Cl)c2)coc2c(Br)c(O)ccc12` [P(A3,B27)], 1.9 µg/mL (≈ 5.4 µM).
In the case of `O=c1c(-c2cccc(F)c2)coc2c(Br)c(O)ccc12` [P(A3,B28)], the IC50 is under 1.1 µg/mL.
As for `O=c1c(-c2ccccc2)coc2cc(O)c(F)cc12` [P(A4,B1)], the IC50 was 6.2 µg/mL (≈ 24.2 µM).
With `O=c1c(-c2ccc(Cl)cc2)coc2cc(O)c(F)cc12` [P(A4,B8)], the IC50 is 6.4 µg/mL (≈ 22 µM).
On to `O=c1c(-c2ccc(F)cc2)coc2cc(O)c(F)cc12` [P(A4,B9)], for which the IC50 is over 10.0 µg/mL.
On the same count and under the same terms, the value for `COc1ccc(-c2coc3cc(O)c(F)cc3c2=O)cc1` [P(A4,B11)] was over 10.0 µg/mL; that for `O=c1c(-c2ccc(Br)cc2)coc2cc(O)c(F)cc12` [P(A4,B17)] was 9.0 µg/mL (≈ 26.9 µM).
The same measure, in the same setting: with `Cc1cccc(-c2coc3cc(O)c(F)cc3c2=O)c1` [P(A4,B19)] the figure was under 1.1 µg/mL; with `Cc1ccc(-c2coc3cc(O)c(F)cc3c2=O)cc1` [P(A4,B20)], over 10.0 µg/mL; with `O=c1c(-c2ccc(Cl)c(Cl)c2)coc2cc(O)c(F)cc12` [P(A4,B21)], over 10.0 µg/mL.
Same read-out and setting: the value for `O=c1c(-c2ccc(F)c(F)c2)coc2cc(O)c(F)cc12` [P(A4,B22)] was 9.4 µg/mL (≈ 32.2 µM); that for `O=c1c(-c2cccc(F)c2)coc2cc(O)c(F)cc12` [P(A4,B28)] was 4.3 µg/mL (≈ 15.7 µM).
In the case of `O=c1c(-c2ccc(Br)cc2)coc2cc(O)c(Cl)cc12` [P(A5,B17)], the IC50 is over 10.0 µg/mL.
As for `Cc1cccc(-c2coc3cc(O)c(Cl)cc3c2=O)c1` [P(A5,B19)], the IC50 is 2.5 µg/mL (≈ 8.72 µM).
Same read-out and setting: with `O=c1c(-c2ccc(Cl)c(Cl)c2)coc2cc(O)c(Cl)cc12` [P(A5,B21)] the figure was 9.8 µg/mL (≈ 28.7 µM).
Still for that read-out and setting: the value for `O=c1c(-c2cc(F)cc(F)c2)coc2cc(O)c(Cl)cc12` [P(A5,B23)] was 6.7 µg/mL (≈ 21.7 µM); that for `O=c1c(-c2cccc(Cl)c2)coc2cc(O)c(Cl)cc12` [P(A5,B27)] was over 10.0 µg/mL; that for `Cc1ccc(-c2coc3cc(O)c(Br)cc3c2=O)cc1` [P(A6,B20)] was over 10.0 µg/mL.
In the case of `O=c1c(-c2cccc(F)c2)coc2cc(O)c(Br)cc12` [P(A6,B28)], the IC50 was under 1.1 µg/mL.

Still in this data set, the particulars now being: discussion of the IC50 table.
In the case of `COc1ccc(-c2coc3c(F)c(O)ccc3c2=O)cc1` [P(A1,B11)], the “antigiardial activity/potency in words (SAR discussion)” value (“antigiardial activity/potency in words” for short) was “enhanced potency”.
Same read-out and setting: the value for `O=c1c(-c2ccc(-c3ccccc3)cc2)coc2c(F)c(O)ccc12` [P(A1,B16)] was “less activity”; that for `Cc1cccc(-c2coc3c(F)c(O)ccc3c2=O)c1` [P(A1,B19)] was “enhanced potency”; that for `COc1ccc(-c2coc3c(Br)c(O)ccc3c2=O)cc1` [P(A3,B11)] was “enhanced potency”.
Same read-out and setting: with `Cc1cccc(-c2coc3c(Br)c(O)ccc3c2=O)c1` [P(A3,B19)] the entry was “enhanced potency”; with `O=c1c(-c2cccc(F)c2)coc2c(Br)c(O)ccc12` [P(A3,B28)], “enhanced potency”.
Turning to `O=c1c(-c2ccc(-c3ccccc3)cc2)coc2cc(O)c(F)cc12` [P(A4,B16)], the “antigiardial activity/potency in words” value is “less activity”.
Regarding `Cc1cccc(-c2coc3cc(O)c(F)cc3c2=O)c1` [P(A4,B19)], the “antigiardial activity/potency in words” value is “enhanced potency”.
`O=c1c(-c2ccc(-c3ccccc3)cc2)coc2cc(O)c(Cl)cc12` [P(A5,B16)]: the “antigiardial activity/potency in words” value is recorded as “less activity”.
The same measure, in the same setting: the value for `O=c1c(-c2ccc(-c3ccccc3)cc2)coc2cc(O)c(Br)cc12` [P(A6,B16)] was “less activity”.
For `O=c1c(-c2cccc(F)c2)coc2cc(O)c(Br)cc12` [P(A6,B28)], the “antigiardial activity/potency in words” value is recorded as “enhanced potency”.
